Consider one compound from ChEMBL document CHEMBL5137054, “Xyloketal B Reverses Nutritional Hepatic Steatosis, Steatohepatitis, and Liver Fibrosis through Activation of the PPARα/PGC1α Signaling Pathway” (J Nat Prod, 2022).

Calls of active or inactive are those of the source. The calls are words filed in the database; no cut-off is given here.

Data set [1] relates to Mus musculus. Put plainly: In vivo activation of PPARalpha/PGC1alpha pathway in HFD-induced C57BL/6J mouse model of NAFL assessed as increase in PGC1alpha expression in liver administered intraperitoneally from week 7 to week 12 by immunoblotting analysis. Type of data set: functional, organism-based. The conditions noted are these: dose 20-40 mg/kg/day, route ip, time 6.0 weeks.

A short description of data set [2]: Toxicity in C57BL/6J mouse assessed as effect on serum ALT level at 40 mg/kg, ip. The conditions noted are these: in vivo. Type of data set: organism-based.
Data set [3] is described as follows: Toxicity in C57BL/6J mouse assessed as effect on serum cholesterol level at 40 mg/kg, ip. It counts as organism-based. The following applies: in vivo.
The subject of data set [4] is Mus musculus. Put plainly: Anti-inflammatory activity against MCD-induced C57BL/6J mouse model of nonalcoholic steatohepatitis assessed as downregulation of COX-2 expression in liver at 20 to 40 mg/kg/day, ip administered from week 3 to week 4 by immunoblotting analysis. The following applies: dose 20-40 mg/kg/day, time 2.0 weeks. It counts as functional, organism-based. (In general: Immunoblotting shows a protein as a band on a membrane.)

In data set [5] the test system is Mus musculus. Put plainly: Upregulation of Acox1 gene transcriptional level in HFD-induced C57BL/6J mouse model of NAFL at 20 to 40 mg/kg/day, ip administered from week 7 to week 12 by qRT-PCR analysis. It counts as functional, organism-based. The following applies: dose 20-40 mg/kg/day, time 6.0 weeks. A general note: In qPCR the cycle at which signal appears reflects the starting amount.

Data set [6] concerns Mus musculus. Put plainly: Upregulation of peroxisomal acyl-coenzyme A oxidase-1 enzyme expression in liver of HFD-induced C57BL/6J mouse model of NAFL administered intraperitoneally from week 7 to week 12 by immunoblotting analysis. Type of data set: functional. The following applies: dose 20-40 mg/kg/day, route ip, time 6.0 weeks, DDE = dose-dependent effect.

As for `C[C@H]1CO[C@]2(C)Oc3cc(O)c4c(c3C[C@H]12)O[C@@]1(C)OC[C@H](C)[C@H]1C4`, the result in data set [1], in data set [4] and in data set [5] was Active. In addition, the values for the Activity entry in data set [2], in data set [3] and in data set [6] were “Non-Toxic”, “Non-Toxic” and “Dde”, respectively.
